Laboratory results: patent publication US10273226B2, “Pyrazolyl-heteroarylamides as pesticides” (Bayer Animal Health GmbH, priority 2014, dated 2019)

Legend:
Format in all cases: in vivo
Boophilus microplus = Boophilus microplus injection test; details: application rate 20 μg/animal; injection into abdomen; assessed after 7 days
Description: Boophilus microplus—Injection Test
(§1) Solvent: dimethyl sulphoxide
To produce an appropriate active ingredient formulation, 10 mg of active ingredient are mixed with 0.5 ml of solvent and the concentrate is diluted with solvent to the desired concentration.
1 μl of the active ingredient solution is injected into the abdomen of 5 engorged adult female cattle ticks (Boophilus microplus). The animals are transferred into dishes and kept in a climate-controlled room.
Efficacy is assessed after 7 days by laying of fertile eggs. Eggs which are not visibly fertile are stored in a climate-controlled cabinet until the larvae hatch after about 42 days. An efficacy of 100% means that none of the ticks has laid any fertile eggs; 0% means that all the eggs are fertile.

Ctenocephalides felis = Ctenocephalides felis oral test; details: application rate 100 ppm in citrated cattle blood; after 2 days
Description: Ctenocephalides felis—Oral Test
as §1
For the purpose of producing an appropriate active ingredient formulation, 10 mg of active ingredient are mixed with 0.5 ml of dimethyl sulphoxide. Dilution with citrated cattle blood gives the desired concentration.
About 20 unfed adult cat fleas (Ctenocephalides felis) are placed into a chamber which is closed at the top and bottom with gauze. A metal cylinder whose bottom end is closed with parafilm is placed onto the chamber. The cylinder contains the blood/active ingredient preparation, which can be imbibed by the fleas through the parafilm membrane.
After 2 days, the kill in % is determined. 100% means that all of the fleas have been killed; 0% means that none of the fleas have been killed.

Lucilia cuprina = Lucilia cuprina test; details: application rate 100 ppm; L1 larvae; after 2 days
Description: as §1
To produce an appropriate active ingredient formulation, 10 mg of active ingredient are mixed with 0.5 ml of dimethyl sulphoxide, and the concentrate is diluted with water to the desired concentration.
About 20 L1 larvae of the Australian sheep blowfly (Lucilia cuprina) are transferred into a test vessel containing minced horsemeat and the active ingredient preparation of the desired concentration.
After 2 days, the kill in % is determined. 100% means that all the larvae have been killed and 0% means that none of the larvae have been killed.

Structure (SMILES)	efficacy (laying of fertile eggs) (Boophilus microplus) [%]	efficacy (kill in %) (Ctenocephalides felis) [%]	efficacy (kill in %) (Lucilia cuprina) [%]
Cc1cn(CC(=O)Nc2cc(-c3cnn(-c4c(C(F)(F)F)c(C(F)(F)C(F)(F)F)nn4C)c3)ccc2F)nc1C(F)(F)F [Example 1-112]	95		
Cn1nc(C(F)(F)C(F)(F)F)c(C(F)(F)F)c1-n1cc(-c2ccc(F)c(NC(=O)c3ccccc3OC(F)(F)F)c2)cn1 [Example 1-074]	90		
Cn1nc(C(F)(F)C(F)(F)F)c(C(F)(F)F)c1-n1cc(-c2ccc(F)c(NC(=O)COCc3ccccc3)c2)cn1 [Example 1-114]	100		
Cc1cc(C(F)F)n2nc(C(=O)Nc3cc(-c4cnn(-c5c(C(F)(F)F)c(C(F)(F)C(F)(F)F)nn5C)c4)ccc3F)nc2n1 [Example 1-062]	100	100	100
Cn1nc(C(F)(F)C(F)(F)F)c(C(F)(F)F)c1-n1cc(-c2cnc(Cl)c(NC(=O)c3ncccc3Cl)c2)cn1 [Example 2-002]	100		
Cc1c(C(=O)Nc2cc(-c3cnn(-c4c(C(F)(F)F)c(C(F)(F)C(F)(F)F)nn4C)c3)ccc2F)oc2ccccc12 [Example 1-059]	100		
CCC(C(=O)Nc1cc(-c2cnn(-c3c(C(F)(F)F)c(C(F)(F)C(F)(F)F)nn3C)c2)ccc1F)c1ccccc1 (racemic) [Example 1-124]	100		
Cn1nc(C(F)(F)C(F)(F)F)c(C(F)(F)F)c1-n1cc(-c2ccc(F)c(NC(=O)C3(c4ccc(Cl)cc4)CCC3)c2)cn1 [Example 1-115]	100	90	80
Cc1ccc(C2(C(=O)Nc3cc(-c4cnn(-c5c(C(F)(F)F)c(C(F)(F)C(F)(F)F)nn5C)c4)ccc3F)CCCCC2)cc1 [Example 1-111]	80		
Cn1nc(C(F)(F)C(F)(F)F)c(C(F)(F)F)c1-n1cc(-c2ccc(F)c(NC(=O)CC(C)(C)C)c2)cn1 [Example 1-079]	100	95	100
CC(Oc1ccccc1)C(=O)Nc1cc(-c2cnn(-c3c(C(F)(F)F)c(C(F)(F)C(F)(F)F)nn3C)c2)ccc1F (racemic) [Example 1-123]	100	90	
Cn1nc(C(F)(F)C(F)(F)F)c(C(F)(F)F)c1-n1cc(-c2ccc(F)c(NC(=O)CCc3ccccc3)c2)cn1 [Example 1-125]	100		
Cn1nc(C(F)(F)C(F)(F)F)c(C(F)(F)F)c1-n1cc(-c2ccc(F)c(NC(=O)C(c3ccccc3)C3CCCC3)c2)cn1 (racemic) [Example 1-109]	80		
CCOCC(C)(C)C(=O)Nc1cc(-c2cnn(-c3c(C(F)(F)F)c(C(F)(F)C(F)(F)F)nn3C)c2)ccc1F [Example 1-082]	100	90	
Cn1nc(C(F)(F)C(F)(F)F)c(C(F)(F)F)c1-n1cc(-c2ccc(F)c(NC(=O)CSc3ccccc3)c2)cn1 [Example 1-107]	100		
Cn1nc(C(F)(F)C(F)(F)F)c(C(F)(F)F)c1-n1cc(-c2ccc(Cl)c(NC(=O)c3ncccc3Cl)c2)cn1 [Example 1-021]		80	
Cn1nc(C(F)(F)C(F)(F)F)c(C(F)(F)F)c1-n1cc(-c2cccc(NC(=O)c3ncccc3Cl)c2F)cn1 [Example 1-020]	100	95	90
